Results published in US20180153868A1, “TREATMENT OF BREAST CANCER BY CONCOMITANT ADMINISTRATION OF A BROMODOMAIN INHIBITOR AND A SECOND AGENT” (Gilead Sciences, Inc., priority 2016, published 2018).
Read-outs that look alike come from different tables or passages of the source.

Tests used:
Format in all cases: cell-based
MCF7 [1] = assay: Cell viability assay (Cell Titer-Glo), MCF7; settings: for EC50: Homo sapiens, 72 hours
Method: (§1) The cell viability was determined using the Cell Titer-Glo luminescent cell viability assay, according to the manufacturer's instructions. Luminescence was measured using a PHERAstar FS microplate reader (BMG LABTECH, German). The half-maximal inhibitory concentration (IC50) values were calculated using the prism plot software. The effects of treatments were measured by conducting three independent experiments.

T47D [2] = assay: Colony formation / survival assay, T47D
Method: (§2) Colony Formation or Survival Asasys: Cells were seeded in 12-well plates in triplicates at a density of 600 cells per well for MCF7 and 800 cells per well for T47D cells. Cells were treated after overnight incubated. Medium was changed every 3-4 days until cluster of colonies were formed. The plates were incubated for 7 days for MCF7 cells and xx days for T47D cells. Colonies in the plate were fixed and stained with Formaldehyde (1.0% v/v), Methanol (1%) and crystal violet (1% w/v) for xx min; thoroughly washed with water and air dry and counted using with automated colony counter (Gel counter. OXFORD OPTRONIC Inc). Results are present as average colony count ±SD.
(§3) Impact on cell growth can also be evaluated in colony survival assays. To evaluate the effect of compound (I-1) on colony survival, MCF7 and T47D were plated at low density and treated with several doses of compound (I-1) alone and in combination with fulvestrant. The number of colonies formed after 7 days in culture was evaluated (FIG. 9). […] In the presence of fulvestrant, colony number was reduced 73%, and 20 nM compound (I-1) further reduced colony number by 92%. […] In the presence of fulvestrant, colony number was reduced 41%.

MCF7 [3] = assay: Colony formation / survival assay, MCF7; settings: 7 days
Method: as §2, §3

[4] = test system: ER targets GREB1, MYC, and PGR; assay: Protein expression of ER targets in MCF7 and T47D (FIG. 1); settings: 24 hours
From the text: (§4) ER, when bound by estrogen or […] such as fulvestrant, undergoes a conformational change that promotes ubiquitination and degradation of the receptor.

ER = ER protein expression in MCF7 and T47D (FIG. 1); settings: 24 hours
From the text: as §4

T47D [5] = assay: Cell viability assay (Cell Titer-Glo), T47D; settings: for EC50: Homo sapiens, 96 hours
Method: as §1

[6] = compound (I-1) alone, read-out: average EC50, cell viability
[7] = in the presence of fulvestrant, read-out: EC50, cell viability
[8] = 20 nM compound (I-1) in the presence of fulvestrant
[9] = single agent fulvestrant treatment

## Cc1noc(C)c1-c1cc(C(O)(c2ccccn2)c2ccccn2)c2nc(C3CC3)[nH]c2c1 [compound (I-1), (2-cyclopropyl-6-(3,5-dimethylisoxazol-4-yl)-1H-benzo[d]imidazol-4-yl)di(pyridin-2-yl)methanol]
MCF7 [1]; [6]
  EC50: 61.3 ± 8.4 nM
MCF7 [1]; [7]
  EC50: 25 ± 10.6 nM
MCF7 [1]; p value 0.00027
  increase in potency (EC50 alone vs in combination with fulvestrant): 2.5 fold
T47D [2]; 20 nM compound (I-1) alone
  effect on colony number: no significant effect
T47D [2]; [8]
  effect on colony number: no significant effect
T47D [2]; 60 nM compound (I-1) alone
  reduced colony number: 53%
T47D [2]; 60 nM compound (I-1) in the presence of fulvestrant
  further reduced colony number: 66%
T47D [2]; 120 nM compound (I-1) alone
  reduced colony number: 60%
T47D [2]; 120 nM compound (I-1) in the presence of fulvestrant
  further reduced colony number: 78%
MCF7 [3]; 20 nM compound (I-1) alone
  reduced colony number: 48%
MCF7 [3]; [8]
  further reduced colony number: 92%
MCF7 [3]; 60 nM compound (I-1) alone
  effect on colonies: nearly all colonies eliminated
MCF7 [3]; 120 nM compound (I-1) alone
  effect on colonies: nearly all colonies eliminated
[4]; addition of 50 or 100 nM compound (I-1)
  ER target (GREB1, MYC, PGR) expression: consistently reduced target expression
[4]; combination of fulvestrant and compound (I-1)
  ER target (GREB1, MYC, PGR) protein reduction: most pronounced protein reduction
ER; 100 or 50 nM compound (I-1) added under estrogen or fulvestrant treatments
  ER protein expression: further reduced ER protein expression
T47D [5]; [6]
  EC50: 95.3 ± 16.5 nM
T47D [5]; [7]
  EC50: 64 ± 5 nM
T47D [5]; p value 0.0030
  increase in potency (EC50 alone vs in combination with fulvestrant): 1.5 fold

## C[C@]12CC[C@@H]3c4ccc(O)cc4C[C@@H](CCCCCCCCC[S+]([O-])CCCC(F)(F)C(F)(F)F)[C@H]3[C@@H]1CC[C@@H]2O (stereo partly shown) [fulvestrant, reference compound]
MCF7 [1]; [9]
  reduced growth (average): 47.0±19.6%
T47D [2]; fulvestrant alone
  colony number reduced: 41%
MCF7 [3]; fulvestrant alone
  colony number reduced: 73%
[4]; in the presence of fulvestrant (12 nM)
  estrogen induction of GREB1, MYC, PGR protein expression: significantly reduced
ER; 12 nM Fulvestrant
  ER protein levels: reduced ER protein levels
T47D [5]; [9]
  reduced growth (average): 35.8±5.0%
